Test results published in ChEMBL document CHEMBL4346757, “Synthesis and biological evaluation of 7-methoxy-1-(3,4,5-trimethoxyphenyl)-4,5-dihydro-2H-benzo[e]indazoles as new colchicine site inhibitors” (Bioorg Med Chem Lett, 2019).

What was measured:
Format in all cases: functional
MOLT-4 = assay: Growth inhibition of human MOLT4 cells assessed as cell growth at 0.01 uM after 48 hrs by SRB assay relative to control; details: MOLT-4, 48 h, read-out: Activity
A549 = assay: Growth inhibition of human A549/ATCC cells assessed as cell growth at 0.01 uM after 48 hrs by SRB assay relative to control; details: A549, 48 h, read-out: Activity
HCT-15 = assay: Growth inhibition of human HCT15 cells assessed as cell growth at 0.01 uM after 48 hrs by SRB assay relative to control; details: HCT-15, 48 h, read-out: Activity
OVCAR-5 = assay: Growth inhibition of human OVCAR5 cells assessed as cell growth at 0.01 uM after 48 hrs by SRB assay relative to control; details: OVCAR-5, 48 h, read-out: Activity
DU-145 [1] = assay: Growth inhibition of human DU145 cells assessed as cell growth at 0.01 uM after 48 hrs by SRB assay relative to control; details: DU-145, 48 h, read-out: Activity
CCRF-CEM [2] = assay: Growth inhibition of human CCRF-CEM cells assessed as cell growth at 0.1 uM after 48 hrs by SRB assay relative to control; details: read-out: Activity
SNB-75 = assay: Growth inhibition of human SNB75 cells assessed as cell growth at 0.1 uM after 48 hrs by SRB assay relative to control; details: SNB-75, 48 h, read-out: Activity
LOX IMVI = assay: Growth inhibition of human LOXIMVI cells assessed as cell growth at 0.1 uM after 48 hrs by SRB assay relative to control; details: read-out: Activity
Hs-578T [3] = assay: Growth inhibition of human Hs 578T cells assessed as cell growth at 0.1 uM after 48 hrs by SRB assay relative to control; details: read-out: Activity
U-251 = assay: Growth inhibition of human U251 cells assessed as cell growth at 1 uM after 48 hrs by SRB assay relative to control; details: U-251, 48 h, read-out: Activity
OVCAR-8 = assay: Growth inhibition of human OVCAR8 cells assessed as cell growth at 1 uM after 48 hrs by SRB assay relative to control; details: OVCAR-8, 48 h, read-out: Activity
A498 [4] = assay: Growth inhibition of human A498 cells assessed as cell growth at 1 uM after 48 hrs by SRB assay relative to control; details: A498, 48 h, read-out: Activity
SN12C [5] = assay: Growth inhibition of human SN12C cells assessed as cell growth at 1 uM after 48 hrs by SRB assay relative to control; details: read-out: Activity
SNB-19 = assay: Growth inhibition of human SNB19 cells assessed as cell growth at 10 uM after 48 hrs by SRB assay relative to control; details: SNB-19, 48 h, read-out: Activity
SK-OV-3 = assay: Growth inhibition of human SKOV3 cells assessed as cell growth at 10 uM after 48 hrs by SRB assay relative to control; details: SK-OV-3, 48 h, read-out: Activity
SN12C [6] = assay: Growth inhibition of human SN12C cells assessed as cell growth at 10 uM after 48 hrs by SRB assay relative to control; details: read-out: Activity
DU-145 [7] = assay: Growth inhibition of human DU145 cells assessed as cell growth at 10 uM after 48 hrs by SRB assay relative to control; details: DU-145, 48 h, read-out: Activity
Hs-578T [8] = assay: Growth inhibition of human Hs 578T cells assessed as cell growth at 10 uM after 48 hrs by SRB assay relative to control; details: read-out: Activity
CCRF-CEM [9] = assay: Growth inhibition of human CCRF-CEM cells assessed as cell growth at 100 uM after 48 hrs by SRB assay relative to control; details: read-out: Activity
RPMI-8226 = assay: Growth inhibition of human RPMI8226 cells assessed as cell growth at 100 uM after 48 hrs by SRB assay relative to control; details: RPMI-8226, 48 h, read-out: Activity
M14 = assay: Growth inhibition of human M14 cells assessed as cell growth at 100 uM after 48 hrs by SRB assay relative to control; details: M14, 48 h, read-out: Activity
NCI/ADR-RES = assay: Growth inhibition of human NCI-ADR-RES cells assessed as cell growth at 100 uM after 48 hrs by SRB assay relative to control; details: read-out: Activity
A498 [10] = assay: Growth inhibition of human A498 cells assessed as cell growth at 100 uM after 48 hrs by SRB assay relative to control; details: A498, 48 h, read-out: Activity
MCF7 = assay: Growth inhibition of human MCF7 cells assessed as cell growth at 100 uM after 48 hrs by SRB assay relative to control; details: MCF7, 48 h, read-out: Activity
BT-549 = assay: Growth inhibition of human BT549 cells assessed as cell growth at 100 uM after 48 hrs by SRB assay relative to control; details: BT-549, 48 h, read-out: Activity
SR = assay: Cytotoxicity against human SR cells assessed as growth inhibition after 48 hrs by SRB assay
NCI-H460 = assay: Cytotoxicity against human NCI-H460 cells assessed as growth inhibition after 48 hrs by SRB assay; details: NCI-H460, 48 h
SF-539 = assay: Cytotoxicity against human SF539 cells assessed as growth inhibition after 48 hrs by SRB assay; details: SF-539, 48 h
MDA-MB-435 = assay: Cytotoxicity against human MDA-MB-435 cells assessed as growth inhibition after 48 hrs by SRB assay; details: MDA-MB-435, 48 h
SK-MEL-2 = assay: Cytotoxicity against human SK-MEL-2 cells assessed as growth inhibition after 48 hrs by SRB assay; details: SK-MEL-2, 48 h
T47D = assay: Cytotoxicity against human T47D cells assessed as growth inhibition after 48 hrs by SRB assay
[11] = read-out: LC50 (the source's name)
[12] = read-out: pLC50 (the source's name) (converted)

COc1ccc2c(c1)CCc1n[nH]c(-c3cc(OC)c(OC)c(OC)c3)c1-2
growth at 0.01 µM (MOLT-4): 41%
growth at 0.01 µM (A549): 14%
growth at 0.01 µM (HCT-15): 6%
growth at 0.01 µM (OVCAR-5): 56%
growth at 0.01 µM (DU-145 [1]): 13%
growth at 0.1 µM (CCRF-CEM [2]): 42%
growth at 0.1 µM (SNB-75): 31%
growth at 0.1 µM (LOX IMVI): 16%
growth at 0.1 µM (Hs-578T [3]): 17%
growth at 1 µM (U-251): 8%
growth at 1 µM (OVCAR-8): 10%
growth at 1 µM (A498 [4]): -16%
growth at 1 µM (SN12C [5]): 36%
growth at 10 µM (SNB-19): 24%
growth at 10 µM (SK-OV-3): -13%
growth at 10 µM (SN12C [6]): 24%
growth at 10 µM (DU-145 [7]): 8%
growth at 10 µM (Hs-578T [8]): 9%
growth at 100 µM (CCRF-CEM [9]): 25%
growth at 100 µM (RPMI-8226): 15%
growth at 100 µM (M14): -66%
growth at 100 µM (NCI/ADR-RES): -31%
growth at 100 µM (A498 [10]): -61%
growth at 100 µM (MCF7): -38%
growth at 100 µM (BT-549): -36%
GI50 (SR; read-out: GI50): < 0.01 µM
CC50 (SR; [11]): > 100 µM
TGI (SR; read-out: TGI): 22.9 µM
GI50 (SR; read-out: pGI50 (converted)): < 0.01 µM
CC50 (SR; [12]): > 100 µM
TGI (SR; read-out: pTGI (converted)): 22.9 µM
GI50 (NCI-H460; read-out: GI50): < 0.01 µM
CC50 (NCI-H460; [11]): 68.5 µM
TGI (NCI-H460; read-out: TGI): 2.06 µM
GI50 (NCI-H460; read-out: pGI50 (converted)): < 0.01 µM
CC50 (NCI-H460; [12]): 69.2 µM
TGI (NCI-H460; read-out: pTGI (converted)): 2.04 µM
GI50 (SF-539; read-out: GI50): < 0.01 µM
CC50 (SF-539; [11]): 29.9 µM
TGI (SF-539; read-out: TGI): < 0.01 µM
GI50 (SF-539; read-out: pGI50 (converted)): < 0.01 µM
CC50 (SF-539; [12]): 30.2 µM
TGI (SF-539; read-out: pTGI): < 0.01 µM
GI50 (MDA-MB-435; read-out: GI50): < 0.01 µM
CC50 (MDA-MB-435; [11]): 29.8 µM
TGI (MDA-MB-435; read-out: TGI): < 0.01 µM
GI50 (MDA-MB-435; read-out: pGI50 (converted)): < 0.01 µM
CC50 (MDA-MB-435; [12]): 29.5 µM
TGI (MDA-MB-435; read-out: pTGI): < 0.01 µM
GI50 (SK-MEL-2; read-out: GI50): < 0.01 µM
LC50 (SK-MEL-2; read-out: LC50): 98.7 µM
TGI (SK-MEL-2; read-out: TGI): 26.8 µM
GI50 (SK-MEL-2; read-out: pGI50 (converted)): < 0.01 µM
LC50 (SK-MEL-2; read-out: pLC50 (converted)): 97.7 µM
TGI (SK-MEL-2; read-out: pTGI (converted)): 26.9 µM
GI50 (T47D; read-out: GI50): 3.59 µM
LC50 (T47D; read-out: LC50): 62.5 µM
TGI (T47D; read-out: TGI): 21.3 µM
GI50 (T47D; read-out: pGI50 (converted)): 3.63 µM
LC50 (T47D; read-out: pLC50 (converted)): 63.1 µM
TGI (T47D; read-out: pTGI (converted)): 21.4 µM
